Experimental data reported in patent US12435044B2, “Pyridazinone herbicides and pyridazinone intermediates used to prepare a herbicide” (FMC Corporation, priority 2018, dated 2025).

Legend:
Test in all cases: Test E pre-/postemergence greenhouse test
Format in all cases: in vivo
[1] = test system: barnyardgrass (Echinochloa crus-galli); conditions: Preemergence
From the text: (§1) Seeds of plant species selected from corn (Zea mays), soybean (Glycine max), velvetleaf (Abutilon theophrasti), lambsquarters (Chenopodium album), poinsettia, wild (Euphorbia heterophylla), pigweed, palmer (Amaranthus palmeri), waterhemp (common waterhemp, Amaranthus rudis), surinam grass (Brachiaria decumbens), crabgrass, large (Digitaria sanguinalis), crabgrass, Brazil (Digitaria horizontalis), panicum, fall (Panicum dichotomiflorum), foxtail, giant (Setaria faberii), foxtail, green (Setaria viridis), goosegrass (Eleusine indica), johnsongrass (Sorghum halepense), ragweed (common ragweed, Ambrosia elatior), barnyardgrass (Echinochloa crus-galli), sandbur (southern sandbur, Cenchrus echinatus), arrowleaf sida (Sida rhombifolia), ryegrass, Italian (Lolium multiflorum), dayflower, VA (Virginia (VA) dayflower, Commelina virginica), field bindweed (Convolvulus arvensis), morningglory (Ipomoea coccinea), horseweed (Conyza canadensis), kochia (Kochia scoparia), nutsedge, yellow (Cyperus esculentus) and hairy beggarticks (Bidenspilosa), were planted into a silt loam soil and treated preemergence with test chemicals formulated in a non-phytotoxic solvent mixture which included a surfactant.
(§2) At the same time, plants selected from these crop and weed species and also waterhemp_RES1, (ALS & Triazine resistant common waterhemp, Amaranthus rudis), and waterhemp_RES2, (ALS & HPPD resistant common waterhemp, Amaranthus rudis) were planted in pots containing Redi-Earth® planting medium (Scotts Company, 14111 Scottslawn Road, Marysville, Ohio 43041) comprising spaghnum peat moss, vermiculite, wetting agent and starter nutrients were treated with postemergence applications of test chemicals formulated in the same manner. Plants ranged in height from 2 to 18 cm for postemergence treatments (1- to 4-leaf stage). Treated plants and controls were maintained in a greenhouse for 14 to 21 d, after which time all species were compared to controls and visually evaluated. Plant response ratings, summarized in Table E, are based on a scale of 0 to 100 where 0 is no effect and 100 is complete control. A dash (-) response means no test result.

corn (Zea mays) = test system: corn (Zea mays)
From the text: as §1, §2

[2] = test system: crabgrass, large (Digitaria sanguinalis); conditions: Preemergence
From the text: as §1, §2

[3] = test system: foxtail, giant (Setaria faberii); conditions: Preemergence
From the text: as §1, §2

[4] = test system: horseweed (Conyza canadensis); conditions: Postemergence
From the text: as §1, §2

[5] = test system: panicum, fall (Panicum dichotomiflorum)
From the text: as §1, §2

[6] = test system: pigweed, palmer (Amaranthus palmeri)
From the text: as §1, §2

[7] = test system: ragweed (common ragweed, Ambrosia elatior)
From the text: as §1, §2

soybean (Glycine max) = test system: soybean (Glycine max)
From the text: as §1, §2

[8] = test system: surinam grass (Brachiaria decumbens); conditions: Preemergence
From the text: as §1, §2

[9] = test system: velvetleaf (Abutilon theophrasti); conditions: Preemergence
From the text: as §1, §2

[10] = test system: waterhemp (common waterhemp, Amaranthus rudis)
From the text: as §1, §2

With `Cc1ccc2ccc(C)c(-c3c(O)c(Cl)nn(C)c3=O)c2c1` [Cpd. No. 20, 6-chloro-4-(2,7-dimethyl-1-naphthalenyl)-5-hydroxy-2-methyl-3(2H)-pyridazinone] as the molecule, how does the “Plant response rating, Barnyardgrass” value ([1]; 16 g ai/ha) read?
Its value is 0.

And the “Plant response rating, Barnyardgrass” value ([1]; 31 g ai/ha)?
The value was 75.

What about the “Plant response rating, Barnyardgrass” value ([1]; 62 g ai/ha) of the same molecule?
The value was 80.

And the “Plant response rating, Barnyardgrass” value ([1]; 125 g ai/ha)?
The value was 100.

And the “Plant response rating, Corn” value (corn (Zea mays); Postemergence, 16 g ai/ha)?
Its value is 5.

What about the “Plant response rating, Corn” value (corn (Zea mays); Postemergence, 31 g ai/ha) of the same molecule?
Its value is 20.

What about the “Plant response rating, Corn” value (corn (Zea mays); Postemergence, 62 g ai/ha) of the same molecule?
Its value is 10.

What about the “Plant response rating, Corn” value (corn (Zea mays); Postemergence, 125 g ai/ha) of the same molecule?
The value was 10.

And the “Plant response rating, Corn” value (corn (Zea mays); Preemergence, 16 g ai/ha)?
The value was 0.

And the “Plant response rating, Corn” value (corn (Zea mays); Preemergence, 31 g ai/ha)?
The value was 0.

What about the “Plant response rating, Corn” value (corn (Zea mays); Preemergence, 62 g ai/ha) of the same molecule?
Its value is 0.

What about the “Plant response rating, Corn” value (corn (Zea mays); Preemergence, 125 g ai/ha) of the same molecule?
The value was 0.

And the “Plant response rating, Crabgrass, Large” value ([2]; 16 g ai/ha)?
The value was 65.

What about the “Plant response rating, Crabgrass, Large” value ([2]; 31 g ai/ha) of the same molecule?
Its value is 65.

What about the “Plant response rating, Crabgrass, Large” value ([2]; 62 g ai/ha) of the same molecule?
Its value is 75.

What about the “Plant response rating, Crabgrass, Large” value ([2]; 125 g ai/ha) of the same molecule?
Its value is 80.

What about the “Plant response rating, Foxtail, Giant” value ([3]; 16 g ai/ha) of the same molecule?
The value was 10.

What about the “Plant response rating, Foxtail, Giant” value ([3]; 31 g ai/ha) of the same molecule?
The value was 60.

And the “Plant response rating, Foxtail, Giant” value ([3]; 62 g ai/ha)?
Its value is 90.

What about the “Plant response rating, Foxtail, Giant” value ([3]; 125 g ai/ha) of the same molecule?
Its value is 98.

And the “Plant response rating, Horseweed” value ([4]; 16 g ai/ha)?
Its value is 80.

And the “Plant response rating, Horseweed” value ([4]; 31 g ai/ha)?
Its value is 75.

What about the “Plant response rating, Horseweed” value ([4]; 62 g ai/ha) of the same molecule?
Its value is 85.

What about the “Plant response rating, Horseweed” value ([4]; 125 g ai/ha) of the same molecule?
Its value is 80.

What about the “Plant response rating, Panicum, Fall” value ([5]; Postemergence, 16 g ai/ha) of the same molecule?
Its value is 70.

What about the “Plant response rating, Panicum, Fall” value ([5]; Postemergence, 31 g ai/ha) of the same molecule?
The value was 90.

What about the “Plant response rating, Panicum, Fall” value ([5]; Postemergence, 62 g ai/ha) of the same molecule?
Its value is 90.

And the “Plant response rating, Panicum, Fall” value ([5]; Postemergence, 125 g ai/ha)?
The value was 95.

And the “Plant response rating, Panicum, Fall” value ([5]; Preemergence, 16 g ai/ha)?
Its value is 75.

What about the “Plant response rating, Panicum, Fall” value ([5]; Preemergence, 31 g ai/ha) of the same molecule?
The value was 98.

What about the “Plant response rating, Panicum, Fall” value ([5]; Preemergence, 62 g ai/ha) of the same molecule?
Its value is 98.

What about the “Plant response rating, Panicum, Fall” value ([5]; Preemergence, 125 g ai/ha) of the same molecule?
The value was 100.

What about the “Plant response rating, Pigweed, Palmer” value ([6]; Postemergence, 16 g ai/ha) of the same molecule?
The value was 60.

And the “Plant response rating, Pigweed, Palmer” value ([6]; Postemergence, 31 g ai/ha)?
Its value is 65.

What about the “Plant response rating, Pigweed, Palmer” value ([6]; Postemergence, 62 g ai/ha) of the same molecule?
Its value is 70.

And the “Plant response rating, Pigweed, Palmer” value ([6]; Postemergence, 125 g ai/ha)?
Its value is 60.

And the “Plant response rating, Pigweed, Palmer” value ([6]; Preemergence, 16 g ai/ha)?
Its value is 20.

And the “Plant response rating, Pigweed, Palmer” value ([6]; Preemergence, 31 g ai/ha)?
The value was 35.

And the “Plant response rating, Pigweed, Palmer” value ([6]; Preemergence, 62 g ai/ha)?
Its value is 95.

What about the “Plant response rating, Pigweed, Palmer” value ([6]; Preemergence, 125 g ai/ha) of the same molecule?
The value was 98.

And the “Plant response rating, Ragweed” value ([7]; Postemergence, 16 g ai/ha)?
Its value is 90.

What about the “Plant response rating, Ragweed” value ([7]; Postemergence, 31 g ai/ha) of the same molecule?
Its value is 85.

And the “Plant response rating, Ragweed” value ([7]; Postemergence, 62 g ai/ha)?
Its value is 95.

And the “Plant response rating, Ragweed” value ([7]; Postemergence, 125 g ai/ha)?
The value was 95.

What about the “Plant response rating, Ragweed” value ([7]; Preemergence, 16 g ai/ha) of the same molecule?
Its value is 60.

And the “Plant response rating, Ragweed” value ([7]; Preemergence, 31 g ai/ha)?
Its value is 95.

And the “Plant response rating, Ragweed” value ([7]; Preemergence, 62 g ai/ha)?
The value was 95.

What about the “Plant response rating, Ragweed” value ([7]; Preemergence, 125 g ai/ha) of the same molecule?
Its value is 98.

And the “Plant response rating, Soybean” value (soybean (Glycine max); Postemergence, 16 g ai/ha)?
The value was 10.

What about the “Plant response rating, Soybean” value (soybean (Glycine max); Postemergence, 31 g ai/ha) of the same molecule?
Its value is 15.

And the “Plant response rating, Soybean” value (soybean (Glycine max); Postemergence, 62 g ai/ha)?
Its value is 30.

What about the “Plant response rating, Soybean” value (soybean (Glycine max); Postemergence, 125 g ai/ha) of the same molecule?
The value was 40.

What about the “Plant response rating, Soybean” value (soybean (Glycine max); Preemergence, 16 g ai/ha) of the same molecule?
Its value is 0.

And the “Plant response rating, Soybean” value (soybean (Glycine max); Preemergence, 62 g ai/ha)?
Its value is 15.

What about the “Plant response rating, Soybean” value (soybean (Glycine max); Preemergence, 125 g ai/ha) of the same molecule?
Its value is 0.

What about the “Plant response rating, Surinam Grass” value ([8]; 16 g ai/ha) of the same molecule?
The value was 35.

And the “Plant response rating, Surinam Grass” value ([8]; 31 g ai/ha)?
Its value is 80.

What about the “Plant response rating, Surinam Grass” value ([8]; 62 g ai/ha) of the same molecule?
Its value is 90.

What about the “Plant response rating, Surinam Grass” value ([8]; 125 g ai/ha) of the same molecule?
The value was 100.

What about the “Plant response rating, Velvetleaf” value ([9]; 16 g ai/ha) of the same molecule?
The value was 50.

What about the “Plant response rating, Velvetleaf” value ([9]; 31 g ai/ha) of the same molecule?
Its value is 80.

And the “Plant response rating, Velvetleaf” value ([9]; 62 g ai/ha)?
The value was 90.

What about the “Plant response rating, Velvetleaf” value ([9]; 125 g ai/ha) of the same molecule?
The value was 100.

What about the “Plant response rating, Waterhemp” value ([10]; Postemergence, 16 g ai/ha) of the same molecule?
Its value is 75.

What about the “Plant response rating, Waterhemp” value ([10]; Postemergence, 31 g ai/ha) of the same molecule?
The value was 75.

What about the “Plant response rating, Waterhemp” value ([10]; Postemergence, 62 g ai/ha) of the same molecule?
Its value is 95.

What about the “Plant response rating, Waterhemp” value ([10]; Postemergence, 125 g ai/ha) of the same molecule?
Its value is 90.

What about the “Plant response rating, Waterhemp” value ([10]; Preemergence, 16 g ai/ha) of the same molecule?
The value was 60.

What about the “Plant response rating, Waterhemp” value ([10]; Preemergence, 31 g ai/ha) of the same molecule?
The value was 70.

What about the “Plant response rating, Waterhemp” value ([10]; Preemergence, 62 g ai/ha) of the same molecule?
Its value is 98.

What about the “Plant response rating, Waterhemp” value ([10]; Preemergence, 125 g ai/ha) of the same molecule?
Its value is 100.
